Measurements published in patent publication US20070270484A1, “3'-N-Substituted-3-O-Substituted Erythronolide a Derivatives” (priority 2003, published 2007).
≈ marks a conversion by molar mass, not a printed value.

Experiments:
S. pneum 1275 (erm) = test: microbe, parasite or virus in culture; format: cell-based, streptococcus pneumoniae; settings: for Minimum Inhibitory Concentrations, S. pneum 1275 (erm): agar dilution, 18-24 hours, 35±2° C., 5% CO2, erm: ribosomal modification (mutation) erm genes
Description: (§1) Drug dilutions and the agar plates are prepared by NCCLS method. Inoculum is prepared by direct colony suspensions in normal saline and adjusted to 0.5 McFarland turbidity and subsequently diluted as per NCCLS guidelines in order to obtain 10^4 CFU/spot. CFU/ml of a few randomly selected cultures is performed. The cultures are replicated on the agar plates using replicator (Denley's multipoint). The plates are incubated at 35±2° C. and in 5% CO2 atmosphere (for respiratory and Haemophilus strains) for 18-24 hours at 35±2° C. Minimum inhibitory concentrations (MIC) are determined after 18-24 hours. Q. C. strains are also included in each run of the study. The cation content of Mueller Hinton agar is checked by performing disk […] of 10 μg gentamicin disk against Pseudomonas aeroginosa ATCC 27853. The zone of inhibition should fall between 16-21 mm. The concentration of drug at which there is complete disappearance of growth spot or formation of less than 10 colonies per spot is considered as MIC.

S. pneum AB 14 (erm) = test: microbe, parasite or virus in culture; format: cell-based, streptococcus pneumoniae; settings: for Minimum Inhibitory Concentrations, S. pneum AB 14 (erm): agar dilution, 18-24 hours, 35±2° C., 5% CO2, erm: ribosomal modification (mutation) erm genes
Description: as §1

S. pneum AB 29 (erm) = test: microbe, parasite or virus in culture; format: cell-based, streptococcus pneumoniae; settings: agar dilution, 18-24 hours, 35±2° C., 5% CO2; erm: ribosomal modification (mutation) erm genes
Description: as §1

S. pneum 1256 (erm) = test: microbe, parasite or virus in culture; format: cell-based, streptococcus pneumoniae; settings: agar dilution, 18-24 hours, 35±2° C., 5% CO2; erm: ribosomal modification (mutation) erm genes
Description: as §1

S. pneum 1294 (mef) = test: microbe, parasite or virus in culture; format: cell-based, streptococcus pneumoniae; settings: agar dilution, 18-24 hours, 35±2° C., 5% CO2; mef: efflux pump mef genes
Description: as §1

S. pneum AB 30 (erm) = test: microbe, parasite or virus in culture; format: cell-based, streptococcus pneumoniae; settings: agar dilution, 18-24 hours, 35±2° C., 5% CO2; erm: ribosomal modification (mutation) erm genes
Description: as §1

S. pneum AB 34 (mef) = test: MIC, agar incorporation method (NCCLS agar dilution method); format: cell-based, streptococcus pneumoniae; settings: 18-24 hours, 35±2° C., 5% CO2, mef: efflux pump mef genes
Description: as §1

S. pneum 1251 (mef) = test: as above; format: cell-based, streptococcus pneumoniae; settings: 18-24 hours, 35±2° C., 5% CO2, mef: efflux pump mef genes
Description: as §1

S. pneum ATCC 6303 = test: as above; format: cell-based, streptococcus pneumoniae; settings: 18-24 hours, 35±2° C., 5% CO2
Description: as §1

S. pneum CS 1687 (mef) = test: as above; format: cell-based, streptococcus pneumoniae; settings: 18-24 hours, 35±2° C., 5% CO2, mef: efflux pump mef genes
Description: as §1

S. pneum ATCC 49619 = test: as above; format: cell-based, streptococcus pneumoniae; settings: 35±2° C.; for Minimum Inhibitory Concentrations, S. pneum ATCC 49619: 18-24 hours, 5% CO2
Description: as §1

MoraXella MI = test: as above; format: cell-based; settings: 18-24 hours, 35±2° C.
Description: as §1

H. inflenza ATCC 49247 = test: as above; format: cell-based, Haemophilus influenzae; settings: agar dilution, 18-24 hours, 35±2° C., 5% CO2
Description: Minimum inhibitory concentrations (μg/ml) were obtained for representative compounds of the invention, which are given in Table 2.
as §1

| Molecule | Minimum Inhibitory Concentrations, S. pneum 1275 (erm) (S. pneum 1275 (erm)) | Minimum Inhibitory Concentrations, S. pneum AB 14 (erm) (S. pneum AB 14 (erm)) | Minimum Inhibitory Concentrations, S. pneum AB 29 (erm) (S. pneum AB 29 (erm)) | Minimum Inhibitory Concentrations, S. pneum 1256 (erm) (S. pneum 1256 (erm)) | Minimum Inhibitory Concentrations, S. pneum 1294 (mef) (S. pneum 1294 (mef)) | Minimum Inhibitory Concentrations, S. pneum AB 30 (erm) (S. pneum AB 30 (erm)) | Minimum Inhibitory Concentrations, S. pneum AB 34 (mef) (S. pneum AB 34 (mef)) | Minimum Inhibitory Concentrations, S. pneum 1251 (mef) (S. pneum 1251 (mef)) | Minimum Inhibitory Concentrations, S. pneum ATCC 6303 (S. pneum ATCC 6303) | Minimum Inhibitory Concentrations, S. pneum CS 1687 (mef) (S. pneum CS 1687 (mef)) | Minimum Inhibitory Concentrations, S. pneum ATCC 49619 (S. pneum ATCC 49619) | Minimum Inhibitory Concentrations, MoraXella MI (MoraXella MI) | Minimum Inhibitory Concentrations, H. inflenza ATCC 49247 (H. inflenza ATCC 49247) | MIC (S. pneum 1275 (erm); Streptococcus pneumoniae, read-out: Minimum Inhibitory Concentrations, S. pneum 1275 (erm)) | MIC (S. pneum AB 14 (erm); Streptococcus pneumoniae, read-out: Minimum Inhibitory Concentrations, S. pneum AB 14 (erm)) | MIC (S. pneum ATCC 49619; Streptococcus pneumoniae, ATCC49619, 18-24 hours, 5% CO2, read-out: Minimum Inhibitory Concentrations, S. pneum ATCC 49619) | MIC (MoraXella MI; Moraxella, read-out: Minimum Inhibitory Concentrations, MoraXella MI) |
| --- | --- | --- | --- | --- | --- | --- | --- | --- | --- | --- | --- | --- | --- | --- | --- | --- | --- |
| CCC1OC(=O)C(C)C(OC(=O)Cc2ccc(F)cc2F)C(C)C(OC2OC(C)CC(N(C)Cc3ccccc3)C2O)C(C)(OC)CC(C)C(=O)C(C)C(O)C1(C)O (stereo not shown) [Compound No. 74, 3-O-(2,4-Difluorophenyl)acetyl-5-O-(3′-N-desmethyl-3′-N-benzyl) desosaminyl-6-O-methyl erythronolide A] | >16 µg/mL | 16 µg/mL | >16 µg/mL | >16 µg/mL | >16 µg/mL | >16 µg/mL | >16 µg/mL | >16 µg/mL | 8 µg/mL | >16 µg/mL | >16 µg/mL | >16 µg/mL |  |  |  |  |  |
| 3-O-(3-Fluorophenyl)acetyl-5-O-[3′-N-desmethyl-3′-N-cyclopropyl)desosaminyl-6-O-methyl erythronolide A [Compound No. 16] | >16 µg/mL | >16 µg/mL |  | 16 µg/mL | 1 µg/mL | >16 µg/mL | >16 µg/mL | 8 µg/mL | 1 µg/mL | 4 µg/mL | 4 µg/mL | >16 µg/mL | >16 µg/mL |  |  |  |  |
| 3-O-(4-Fluorophenyl)acetyl-5-O-(3′-N-desmethyl-3′-N-allyl)desosaminyl-6-O-methyl erythronolide A [Compound No. 20] | >16 µg/mL | >16 µg/mL |  | 16 µg/mL | 1 µg/mL | >16 µg/mL | >16 µg/mL | 1 µg/mL | 0.5 µg/mL | 1 µg/mL | 0.25 µg/mL | 16 µg/mL | >16 µg/mL |  |  |  |  |
| 3-O-(3-Fluorophenyl)acetyl-5-O-(3′-N-desmethyl-3′-N-propargyl)desosaminyl-6-O-methyl erythronolide A [Compound No. 22] | >16 µg/mL | >16 µg/mL |  | >16 µg/mL | 4 µg/mL | >16 µg/mL | >16 µg/mL | 4 µg/mL | 0.5 µg/mL | 1 µg/mL | 0.5 µg/mL | 4 µg/mL | >16 µg/mL |  |  |  |  |
| CCC1OC(=O)C(C)C(OC(=O)Cc2ccc3ccccc3c2)C(C)C(OC2OC(C)CC(N(C)Cc3ccccc3)C2O)C(C)(OC)CC(C)C(=O)C(C)C(O)C1(C)O (stereo not shown) [Compound No. 73, 3-O-(2-Naphthyl)acetyl-5-O-(3′-N-desmethyl-3′-N-benzyl) desosaminyl-6-O-methyl erythronolide A] | >16 µg/mL | >16 µg/mL | >16 µg/mL | >16 µg/mL | >16 µg/mL | >16 µg/mL | >16 µg/mL | 2 µg/mL | 1 µg/mL | 2 µg/mL | 2 µg/mL | 16 µg/mL |  |  |  |  |  |
| CCC[C@@H]1C[C@@H](C(=O)N[C@@H]([C@H]2O[C@H](SC)[C@H](O)[C@@H](O)[C@H]2O)[C@H](C)Cl)N(C)C1 [Cl, Clindamycin, reference compound] |  |  |  |  |  |  |  |  |  |  |  |  |  | > 16 µg/mL | > 16 µg/mL | 0.015 µg/mL (≈ 0.0353 µM) | 2 µg/mL (≈ 4.71 µM) |
| CCC1OC(=O)C(C)C(OC(=O)Cc2ccccc2F)C(C)C(OC2OC(C)CC(N(C)Cc3ccc(F)cc3)C2O)C(C)(OC)CC(C)C(=O)C(C)C(O)C1(C)O (stereo not shown) [Compound No. 5, 3-O-(2-Fluorophenyl)acetyl-5-O-[3′-N-desmethyl-3′-N-(4-fluoro)benzyl]desosaminyl-6-O-methyl erythronolide A] | >16 µg/mL | >8 µg/mL |  | >8 µg/mL | 2 µg/mL | >8 µg/mL | >8 µg/mL | 2 µg/mL | 2 µg/mL | 2 µg/mL | 2 µg/mL | >8 µg/mL | >128 µg/mL |  |  |  |  |
| 3-O-(3-Fluorophenyl)acetyl-5-O-(3′-N-desmethyl-3′-N-allyl)desosaminyl-6-O-methyl erythronolide A [Compound No. 19] | >16 µg/mL | >16 µg/mL | 2 µg/mL | >16 µg/mL | 4 µg/mL | >16 µg/mL | 16 µg/mL | 2 µg/mL | 2 µg/mL | 2 µg/mL | 2 µg/mL | 16 µg/mL |  |  |  |  |  |
| CCC1OC(=O)C(C)C(OC(=O)Cc2ccc(F)cc2)C(C)C(OC2OC(C)CC(N(C)Cc3ccc([N+](=O)[O-])cc3)C2O)C(C)(OC)CC(C)C(=O)C(C)C(O)C1(C)O (stereo not shown) [Compound No. 24, 3-O-(4-Fluorophenyl)acetyl-5-O-(3′-N-desmethyl-3′-N-(4-nitro)benzyl)desosaminyl-6-O-methyl erythronolide A] | >16 µg/mL | 8 µg/mL | >16 µg/mL | >16 µg/mL | 2 µg/mL | >16 µg/mL | >16 µg/mL | 1 µg/mL | 0.5 µg/mL | 0.5 µg/mL | 0.5 µg/mL | 2 µg/mL |  |  |  |  |  |
